Where a SMILES comes first, the peptide text is derived from it.
Legend:
[1] = test system: involucrin; test: Gene expression test using normal human epidermal keratinocytes (RT-PCR), involucrin; format: cell-based; conditions: Keratinocyte, 48 hours, relative value to control, read-out: IVL (involucrin) gene expression amount
Description: (§1) Normal human epidermal keratinocytes (Kurabo Industries Ltd.) were cultured with HuMedia KG2 (Kurabo Industries Ltd.) at 37° C. and 5% CO2 under saturated vapor. Cells that have become confluent were seeded in a 6-well plate with a seeding density of 3.0×10^5 (cells/well).
(§2) For each evaluation sample, each D-amino acid adjusted in the culture medium so as to be 100 μM or 500 μM was used. On the next day of seeding, each evaluation sample was adjusted to be 100 μM or 500 μM, and each well culture medium was exchanged. Culturing was performed for 48 hours, RNA was extracted from the cells using RN easy mini kit (Qiagen), which was synthesized into cDNA using High-Capacity cDNA Reverse Transcription Kit with RNase Inhibitor (Thermo Fisher). With this cDNA as a template, a sample added group and a control group were compared with each other by the RT-PCR method (7500 fast system (Thermo Fisher)) to evaluate gene expression amounts of filaggrin, involucrin, loricrin, keratin 10, and transglutaminase 1. In Table 4, FLG, IVL, K10, LOR, and TGM indicate filaggrin, involucrin, keratin 10, loricrin, and transglutaminase 1, respectively.

[2] = test system: transglutaminase 1; test: Gene expression test using normal human epidermal keratinocytes (RT-PCR), transglutaminase 1; format: cell-based; conditions: 48 hours, relative value to control
Description: as §1, §2

[3] = test system: filaggrin; test: Gene expression test using normal human epidermal keratinocytes (RT-PCR), filaggrin; format: cell-based; conditions: Keratinocyte, 48 hours, relative value to control, read-out: FLG (filaggrin) gene expression amount
Description: as §1, §2

[4] = test system: laminin 332; conditions: reported in WO 2011/040082; cited from earlier work
[5] = test system: filaggrin, involucrin, loricrin, keratin 10, and transglutaminase 1; test: Gene expression test using normal human epidermal keratinocytes, text summary over the target genes; format: cell-based; conditions: 100 μM or 500 μM, summary of Table 4; for expression amounts of the respective target genes: all five target genes
Description: as §1, §2

[6] = test system: keratin 10; test: Gene expression test using normal human epidermal keratinocytes (RT-PCR), keratin 10; format: cell-based; conditions: Keratinocyte, 48 hours, relative value to control, read-out: K10 (keratin 10) gene expression amount
Description: as §1, §2

[7] = test system: loricrin; test: Gene expression test using normal human epidermal keratinocytes (RT-PCR), loricrin; format: cell-based; conditions: 48 hours, relative value to control
Description: as §1, §2

[8] = orally administered; cited filing; cited from earlier work
[9] = JP 2012-006870; determined only by the subjectivity of subjects; cited from earlier work
[10] = test system: filaggrin, involucrin, transglutaminase 1, keratin 10, and loricrin; conditions: cited from earlier work

| SMILES | fold induction at 100 µM [1] | fold induction at 500 µM [1] | TGM (transglutaminase 1) gene expression amount ([2]; 100 μM) | fold induction at 100 µM [3] | fold induction at 500 µM [3] | laminin 332 production promotion effect [4] | expression amounts of the respective target genes of filaggrin, involucrin, keratin 10, and transglutaminase 1 [5] | fold induction at 100 µM [6] | fold induction at 500 µM [6] | LOR (loricrin) gene expression amount ([7]; 500 μM) | expression amounts of the respective target genes of filaggrin, involucrin, keratin 10, and loricrin [5] | LOR (loricrin) gene expression amount ([7]; 100 μM) | TGM (transglutaminase 1) gene expression amount ([2]; 500 μM) | expression amounts of the respective target genes [5] | TEWL value [8] | moisture retaining effect [9] | expression promotion action of moisture retention-related proteins such as filaggrin ([10]; applicant's assessment of the prior art) | expression of filaggrin, involucrin, transglutaminase 1, keratin 10, and loricrin ([10]; reported in WO 2014/175001 and JP 2012-232920) |
| --- | --- | --- | --- | --- | --- | --- | --- | --- | --- | --- | --- | --- | --- | --- | --- | --- | --- | --- |
| C[C@@H](N)C(=O)O [D-Ala, D-alanine] | 1.28 | 1.15 | 1.20 | 1.23 | 1.18 | promote the production of laminin 332 | increases | 1.47 | 1.21 | – | – | – | – | – | – | – | – | – |
| NC(=O)C[C@@H](N)C(=O)O [D-Asn, D-asparagine] | – | 1.34 | – | – | 1.55 | – | – | – | 1.21 | 1.80 | increases | – | – | – | – | – | – | – |
| N[C@H](CC(=O)O)C(=O)O [D-Asp, D-aspartic acid] | 1.49 | 1.42 | 1.13 | 1.35 | 1.45 | not expressed | – | 2.43 | 2.1 | 2.10 | – | 2.34 | 1.20 | increases | – | – | – | – |
| N[C@H](CCC(=O)O)C(=O)O [D-Glu, D-glutamic acid] | – | 1.34 | – | – | 1.69 | – | – | – | 1.25 | 2.07 | – | – | 1.13 | increases | reduces | – | – | – |
| NCCCC[C@@H](N)C(=O)O [D-Lys, D-lysine] | 1.27 | 1.72 | 1.12 | 1.48 | 1.29 | – | – | 1.35 | 2.16 | 1.39 | – | 2.02 | – | increases | – | expressed | – | – |
| N[C@H](Cc1ccccc1)C(=O)O [D-Phe, D-phenylalanine] | – | 1.32 | – | – | 1.52 | – | – | – | 1.32 | 1.78 | – | – | 1.26 | increases | – | – | – | – |
| N[C@H](Cc1c[nH]c2ccccc12)C(=O)O [D-Trp, D-tryptophan] | 2.05 | 2.43 | 1.42 | 1.77 | 3.3 | – | – | 2.44 | 3.43 | 3.45 | – | 1.71 | 1.50 | increases | – | – | – | – |
| CC[C@H](C)[C@@H](N)C(=O)O [D-allo-Ile, D-allo-isoleucine] | 1.18 | 1.13 | – | 1.3 | 1.21 | – | – | 1.31 | 1.41 | – | – | 1.31 | 1.27 | increases | – | – | – | – |
| O=C(O)[C@H]1C[C@H](O)CN1 [D-hydroxyproline, reference compound] | – | – | – | – | – | promote the production of laminin 332 | – | – | – | – | – | – | – | – | – | – | – | – |
| NCCCC[C@H](N)C(=O)O [L-lysine, reference compound] | – | – | – | – | – | – | – | – | – | – | – | – | – | – | – | expressed | – | – |
| NCC(=O)N1CCC[C@H]1C(=O)O [glycylproline] (H-Gly-Pro-OH) | – | – | – | – | – | – | – | – | – | – | – | – | – | – | – | – | weak | promoted |

Reference: US20200016058A1, “HORNY LAYER FUNCTION IMPROVING AGENT” (Ajinomoto Co., Inc., priority 2017, published 2020)
